Measurements from PubChem BioAssay AID248 (DTP/NCI, 2004).
“And” between values parts separate entries of the source, which are not always exact repeats. Identical values can stand only once. Toxic doses and inconclusive results are not listed. Rule as the data show it: active = T/C of 150% or more; inactive = T/C below 125%.

Test system: L1210 leukemia ip in BDF1 mice, survival T/C
Experiment: NCI In Vivo Anticancer Drug Screen. Data for tumor model L1210 Leukemia (intraperitoneal) in B6D2F1 (BDF1) mice
Details: endpoint: mean survival time, higher = longer survival
Outline: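 Tumor cells were implanted, animals were treated, and survival was followed. The result divides the treated measurement by the vehicle-control measurement.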

[1] = dose: 100.0 mg/kg/injection, schedule: Q01DX009 (ip), vehicle: saline with Tween-80
[2] = dose: 100.0 mg/kg/injection, schedule: Q04DX003 (ip), vehicle: saline with Tween-80
[3] = dose: 200.0 mg/kg/injection, schedule: Q01DX009 (ip), vehicle: saline with Tween-80
[4] = dose: 200.0 mg/kg/injection, schedule: Q04DX003 (ip), vehicle: saline with Tween-80
[5] = dose: 400.0 mg/kg/injection, schedule: Q04DX003 (ip), vehicle: saline with Tween-80
[6] = dose: 100.0 mg/kg/injection, schedule: Q01DX009 (ip), vehicle: saline
[7] = dose: 200.0 mg/kg/injection, schedule: Q01DX009 (ip), vehicle: saline
[8] = dose: 400.0 mg/kg/injection, schedule: Q01DX009 (ip), vehicle: saline
[9] = dose: 100.0 mg/kg/injection, schedule: Q01DX001 (ip), vehicle: saline
[10] = dose: 100.0 mg/kg/injection, schedule: Q04DX003 (ip), vehicle: Klucel (hydroxypropylcellulose) (HPC)
[11] = dose: 200.0 mg/kg/injection, schedule: Q04DX003 (ip), vehicle: Klucel (hydroxypropylcellulose) (HPC)
[12] = dose: 400.0 mg/kg/injection, schedule: Q04DX003 (ip), vehicle: Klucel (hydroxypropylcellulose) (HPC)
[13] = dose: 400.0 mg/kg/injection, schedule: Q04DX002 (ip), vehicle: saline with Tween-80
[14] = dose: 100.0 mg/kg/injection, schedule: Q04DX003 (ip), vehicle: saline
[15] = dose: 200.0 mg/kg/injection, schedule: Q04DX003 (ip), vehicle: saline
[16] = dose: 400.0 mg/kg/injection, schedule: Q04DX003 (ip), vehicle: saline
[17] = dose: 100.0 mg/kg/injection, schedule: Q01DX001 (ip), vehicle: carboxymethylcellulose (CMC)

Measured: T/C

O=C(O)c1ccc(-c2ccc(C(=O)O)cc2I)c(I)c1
inactive: [1] 92 % of control | [2] 91 % of control | [3] 87 % of control | [4] 96 % of control | [5] 94 % of control

CCCCCCCCCCCCOCC[N+](C/C=C/c1ccccc1)(CCO)CCO
inactive: dose: 6.25 mg/kg/injection, schedule: Q01DX009 (ip), vehicle: saline with Tween-80 93 % of control | dose: 12.5 mg/kg/injection, schedule: Q01DX009 (ip), vehicle: saline with Tween-80 95 % of control

OCC1SC(O)C(O)C(O)C1O (stereo unspecified)
inactive: dose: 50.0 mg/kg/injection, schedule: Q01DX009 (ip), vehicle: saline 102 % of control | dose: 50.0 mg/kg/injection, schedule: Q01DX009 (oral), vehicle: saline 100 % of control | [6] 102 % of control | dose: 100.0 mg/kg/injection, schedule: Q01DX009 (oral), vehicle: saline 102 % of control | [7] 112 % of control | dose: 200.0 mg/kg/injection, schedule: Q01DX009 (oral), vehicle: saline 98 % of control | [8] 109 % of control | dose: 400.0 mg/kg/injection, schedule: Q01DX009 (oral), vehicle: saline 96 % of control

Cc1ccc(-n2c(O)c(N=Nc3ccc(Cl)cc3)c(=O)n(-c3ccccc3)c2=S)cc1
inactive: dose: 37.5 mg/kg/injection, schedule: Q01DX001 (ip), vehicle: Klucel (hydroxypropylcellulose) (HPC) 96 % of control | dose: 75.0 mg/kg/injection, schedule: Q01DX001 (ip), vehicle: Klucel (hydroxypropylcellulose) (HPC) 92 % of control | dose: 150.0 mg/kg/injection, schedule: Q01DX001 (ip), vehicle: Klucel (hydroxypropylcellulose) (HPC) 102 % of control

CC12CCC(=O)C=C1CCC1C2CCC2(C)C(C(=O)CC(O)(C(F)(F)F)C(F)(F)F)CCC12 (stereo unspecified)
inactive: dose: 100.0 mg/kg/injection, schedule: Q01DX001 (ip), vehicle: Klucel (hydroxypropylcellulose) (HPC) 94 % of control | dose: 200.0 mg/kg/injection, schedule: Q01DX001 (ip), vehicle: Klucel (hydroxypropylcellulose) (HPC) 96 % of control | dose: 400.0 mg/kg/injection, schedule: Q01DX001 (ip), vehicle: Klucel (hydroxypropylcellulose) (HPC) 96 % of control

N=C(N)N/N=C(\C=N\NC(=N)N)c1ccc(Oc2ccc(C(/C=N/NC(=N)N)=N\NC(=N)N)cc2)cc1
inactive: dose: 3.8 mg/kg/injection, schedule: Q01DX Z (ip), vehicle: saline 98 % of control | dose: 7.5 mg/kg/injection, schedule: Q01DX Z (ip), vehicle: saline 114 % of control | dose: 15.0 mg/kg/injection, schedule: Q01DX Z (ip), vehicle: saline 118 % of control

CC1(C)N=C(N)N=C(N)N1c1cccc(OCCCOc2ccc([N+](=O)[O-])cc2)c1
inactive: [9] 91 % of control

CC(=O)Nc1cc2c(cc1Cl)-c1ccccc1C2Br (stereo unspecified)
inactive: [10] 96 % of control | [11] 94 % of control | [12] 96 % of control

Clc1ncnc2c1nnn2C1CCCC1
inactive: [9] 101 % of control | dose: 200.0 mg/kg/injection, schedule: Q01DX001 (ip), vehicle: saline 104 % of control

CN(C)N=Nc1cn(C)c(=O)[nH]c1=O
inactive: dose: 50.0 mg/kg/injection, schedule: Q04DX003 (ip), vehicle: water 114 % of control | dose: 400.0 mg/kg/injection, schedule: Q04DX003 (ip), vehicle: water 112 % of control

C=CCN(CC=C)c1ncnc(N(C)C)n1
inactive: dose: 25.6 mg/kg/injection, schedule: Q04DX002 (ip), vehicle: saline with Tween-80 93 % of control | dose: 64.0 mg/kg/injection, schedule: Q04DX002 (ip), vehicle: saline with Tween-80 101 % of control | dose: 160.0 mg/kg/injection, schedule: Q04DX002 (ip), vehicle: saline with Tween-80 101 % of control | [13] 97 % of control

O=C(CCCCCCCCC(=O)N/N=C/c1ccc(O)cc1)N/N=C/c1ccc(O)cc1
inactive: dose: 100.0 mg/kg/injection, schedule: Q01DX001 (ip), vehicle: saline with Tween-80 90 % of control | [1] 89 % of control and 92 % of control | dose: 100.0 mg/kg/injection, schedule: Q04DX002 (ip), vehicle: saline with Tween-80 97 % of control and 100 % of control | [14] 97 % of control | dose: 200.0 mg/kg/injection, schedule: Q01DX001 (ip), vehicle: saline with Tween-80 92 % of control | [3] 100 % of control and 87 % of control | dose: 200.0 mg/kg/injection, schedule: Q04DX002 (ip), vehicle: saline with Tween-80 95 % of control and 97 % of control | [15] 92 % of control | dose: 400.0 mg/kg/injection, schedule: Q01DX001 (ip), vehicle: saline with Tween-80 95 % of control | dose: 400.0 mg/kg/injection, schedule: Q01DX009 (ip), vehicle: saline with Tween-80 101 % of control and 87 % of control | [13] 94 % of control and 92 % of control | [16] 88 % of control

CC(C)(C)[N+](Cc1ccccc1)(Cc1ccccc1)Cc1ccccc1
inactive: [2] 100 % of control | [4] 100 % of control | [5] 104 % of control

NC(=O)C1(Nc2ccc(-c3ccc(Br)cc3)cc2)CCCC1
inactive: dose: 50.0 mg/kg/injection, schedule: Q01DX001 (ip), vehicle: carboxymethylcellulose (CMC) 95 % of control | [17] 86 % of control | dose: 400.0 mg/kg/injection, schedule: Q01DX001 (ip), vehicle: carboxymethylcellulose (CMC) 86 % of control

CC1c2ncnc(N)c2CN1C(=O)c1ccccc1 (stereo unspecified)
inactive: [17] 98 % of control | dose: 200.0 mg/kg/injection, schedule: Q01DX001 (ip), vehicle: carboxymethylcellulose (CMC) 98 % of control

CC1C=C2C(=O)C=C3OCOC34Oc3cc5c(cc3C(C1C)C24)OCO5 (stereo unspecified)
inactive: [10] 94 % of control | [11] 97 % of control | [12] 97 % of control

CCC(CC)N1CCCS1(=O)=O
inactive: [6] 93 % of control | [7] 102 % of control | [8] 96 % of control

COc1cc(OC)cc(C(O)C(C)NC(C)C)c1 (stereo unspecified)
inactive: dose: 6.25 mg/kg/injection, schedule: Q01DX009 (ip), vehicle: Klucel (hydroxypropylcellulose) (HPC) 95 % of control | dose: 12.5 mg/kg/injection, schedule: Q01DX009 (ip), vehicle: Klucel (hydroxypropylcellulose) (HPC) 92 % of control | dose: 12.5 mg/kg/injection, schedule: Q04DX003 (ip), vehicle: saline 108 % of control | dose: 25.0 mg/kg/injection, schedule: Q01DX009 (ip), vehicle: Klucel (hydroxypropylcellulose) (HPC) 92 % of control | dose: 25.0 mg/kg/injection, schedule: Q04DX003 (ip), vehicle: saline 97 % of control | dose: 50.0 mg/kg/injection, schedule: Q01DX009 (ip), vehicle: Klucel (hydroxypropylcellulose) (HPC) 95 % of control | dose: 50.0 mg/kg/injection, schedule: Q04DX003 (ip), vehicle: saline 105 % of control | dose: 100.0 mg/kg/injection, schedule: Q01DX009 (ip), vehicle: Klucel (hydroxypropylcellulose) (HPC) 101 % of control | [14] 103 % of control

C/C=C\C(=O)O
inactive: [6] 101 % of control | [7] 96 % of control

CN1CCC2CCC(C1)N2C (stereo unspecified)
inactive: dose: 75.0 mg/kg/injection, schedule: Q01DX001 (ip), vehicle: saline 93 % of control | dose: 150.0 mg/kg/injection, schedule: Q01DX001 (ip), vehicle: saline 100 % of control

CCSCCO
inactive: [14] 92 % of control | [15] 102 % of control | [16] 100 % of control

COc1ccc(C2(C(=O)O)CC2)cc1
inactive: [2] 96 % of control | [4] 97 % of control | [5] 94 % of control
